These results are taken from patent US12383549B2, “Combination therapy of crenolanib and apoptosis pathway agents for the treatment of proliferative disorders” (Arog Pharmaceuticals, Inc., priority 2020, dated 2025).

In assay [1] the test system is PB and BM blasts of leukemia patients. The conditions noted are these: cited from earlier work.
Assay [2] has as its system PDGFR, FLT3, and TRK kinases. The conditions noted are these: versus other kinases, including c-KIT, VEGFR2, TIE2, FGFR2, EGFR, ERBB2, and SRC; cited from earlier work.
Assay [3] has as its system relapsed or refractory AML patients with activating FLT3 mutations (FLT3-ITD). Kind of assay: Clinical trial NCT02400281: oral crenolanib besylate in combination with intravenous azacitidine, single-patient case reports. Type of assay: in vivo, human. An excerpt: For the majority of patients, the clinical response is short-lived. Response criteria for AML clinical trials are adapted from the International Working Group for AML (Cheson, Bennett et al. 2003). Responders are patients who obtain a Complete Response (CR), Complete Response with incomplete blood count recovery (CRi), or Partial Remission (PR). Briefly, criteria are as follows: • 1. Complete Remission (CR): • a. Peripheral blood counts: • i. No circulating blasts • ii. Neutrophil count ≥1.0×10^9/L • iii. Platelet count ≥100×10^9/L • b. Bone marrow aspirate and biopsy: • i. ≤5% blasts • ii. No Auer Rods • iii. No extramedullary leukemia • 2. Complete remission with incomplete blood count recovery (CRi): • a. Peripheral blood counts: • i. No circulating blasts • ii. Neutrophil count <1.0×10^9/L, or • iii. Platelet count <100×10^9/L • b. Bone marrow aspirate and biopsy • i. ≤5% blasts • ii. No Auer Rods • iii. No extramedullary leukemia • 3. Partial remission: • a. All CR criteria if abnormal before treatment except: • b. ≥50% reduction in bone marrow blast but still >5%
To overcome the poor prognosis of the persistent FLT3-ITD mutation, the patient was provided oral crenolanib besylate in combination with intravenous azacitidine on a clinical trial for relapsed or refractory AML patients with activating FLT3 mutations (NCT02400281). At baseline, the patient presented with 64% bone marrow blasts. The patient began treatment with 75 mg/m^2/day of azacitidine for 7 days and 60 mg of oral crenolanib besylate three times daily for the remainder of the 28 days cycle.
To overcome the poor prognosis of the persistent FLT3-ITD mutation, the patient was provided oral crenolanib besylate in combination with intravenous azacitidine on a clinical trial for relapsed or refractory AML patients with activating FLT3 mutations (NCT02400281). At baseline, the patient presented with 13% bone marrow blasts. The patient began treatment with 75 mg/m^2/day of azacitidine for 7 days and 80 mg of oral crenolanib besylate three times daily.

Consider `CNC(=O)c1cc(Oc2ccc(NC(=O)Nc3ccc(Cl)c(C(F)(F)F)c3)cc2)ccn1` [sorafenib], for which the “bone marrow (BM) blast reduction” value in assay [1] was “only modest BM blast reductions”.
Turning to `CC1(COc2ccc3c(c2)ncn3-c2ccc3cccc(N4CCC(N)CC4)c3n2)COC1` [crenolanib], the “selectivity for PDGFR, FLT3, and TRK kinases” value in assay [2] is listed as “significantly more selective”.
`CC1(COc2ccc3c(c2)ncn3-c2ccc3cccc(N4CCC(N)CC4)c3n2)COC1` [crenolanib besylate]: the bone marrow blasts in assay [3] (Example 1: person, FLT3-ITD relapsed AML, baseline 64% blasts, azacitidine 75 mg/m^2/day for 7 days + crenolanib besylate 60 mg oral three times daily, after 27 days) came to 3%; in assay [3] (Example 2: person, FLT3-ITD AML relapsed after transplant, baseline 13% blasts, azacitidine 75 mg/m^2/day for 7 days + crenolanib besylate 80 mg oral three times daily, after 28 days), 1%. The clinical response entry in assay [3] (Example 1: same patient and regimen with azacitidine, after 27 days, neutrophils recovered, platelets partially recovered) is “CRi”; in assay [3] (Example 2: same patient and regimen with azacitidine, after 28 days), “morphological leukemia free state”. Further, the “clinical response on continued single agent therapy” value in assay [3] (Example 2: single agent crenolanib besylate for an additional 28 days) is given as “maintained a MLFS”.
